The source of these data is patent publication US20250092065A1, “2-(INDAZOL-5-YL)-6-(PIPERIDIN-4-YL)-1,7-NAPHTHYRIDINE DERIVATIVES AND RELATED COMPOUNDS AS MODULATORS FOR SPLICING NUCLEIC ACIDS AND FOR THE TREATMENT OF PROLIFERATIVE DISEASES” (REMIX THERAPEUTICS INC., priority 2022, published 2025).

Counter-ions that a name gives are not always drawn. Like-named read-outs stand apart in the source and are kept apart here.

One data set has as its system HTT mRNA. Put plainly: RT-qPCR splicing assay, HTT mRNA canonical (CJ) and alternative (AJ) junction. Format: cell-based, human. The settings on record: Homo sapiens; for AC50: HTT alternative junction mRNA increase, read-out: HTT AJ (increase in alternative junction mRNA, AC50). A digest of the protocol: (§1)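 Canonical and alternative-exon junction isoforms were quantified by RT-qPCR in cell lysates, with ΔCt against a housekeeper (GAPDH/GUSB/PPIA), then ΔΔCt vs DMSO, converted to 2^(−ΔΔCt) and percent response. K562 or A673 cells were exposed for 24 h to 11 concentrations (3-fold, top final 10 uM).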

The next data set deals with MYB mRNA. Put plainly: RT-qPCR splicing assay, MYB mRNA canonical (CJ) and alternative (AJ) junction. Format: cell-based, human. The settings on record: Homo sapiens; for AC50: MYB alternative junction mRNA increase, read-out: MYB AJ (increase in alternative junction mRNA, AC50). In short, it runs like this:
as §1

A further data set has as its system SMN2 mRNA. Put plainly: RT-qPCR splicing assay, SMN2 mRNA. Format: cell-based, human. The settings on record: Homo sapiens, canonical junction qPCR panel, Table 4; read-out: SMN2 IC50 (decrease in CJ mRNA levels). In short, it runs like this:
as §1

For a further data set, the system named is Target C. Put plainly: RT-qPCR canonical junction panel assay, Target C mRNA. The format is cell-based. The settings on record: Table 4, read-out: Target C IC50 (decrease in CJ mRNA levels). In short, it runs like this: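 IC50 is the concentration giving 50% CJ decrease, from a 4-parameter logistic fit of percent response; response derived from ΔΔCt against housekeeper and DMSO over a fixed ΔCt window, with canonical exon-junction qPCR in compound-treated K562 or A673 cells.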

A further data set relates to K562 cells. In words: Cell Titer Glo 2.0 cell viability (toxicity) assay, K562. The settings on record: 500 cells/well, 72 hours.
[1] abbreviates: RT-qPCR, HTT canonical junction mRNA decrease, read-out: HTT CJ (decrease in canonical junction mRNA, IC50).
Setting [2] is: canonical junction qPCR panel, Table 4, read-out: HTT IC50 (decrease in CJ mRNA levels).
The mark [3] stands for this setting: RT-qPCR, MYB canonical junction mRNA decrease, read-out: MYB CJ (decrease in canonical junction mRNA, IC50).
[4] abbreviates: canonical junction qPCR panel, Table 4, read-out: MYB IC50 (decrease in CJ mRNA levels).

Take `C[C@@H]1CN(c2ccc3nc(-c4cc5cn(C)nc5cc4O)nc(C(N)=O)c3c2)C[C@H](C)N1` [Compound 785, 6-((3R,5S)-3,5-dimethylpiperazin-1-yl)-2-(6-hydroxy-2-methyl-2H-indazol-5-yl)quinazoline-4-carboxamide 2,2,2-trifluoroacetate]: the AC50 was above 10 µM in the data set with HTT mRNA (RT-qPCR) and 0.1 to 1 µM in the data set on MYB mRNA (RT-qPCR). The IC50 in the data set on HTT mRNA (setting [1]) is 1 to 10 µM; in the data set with HTT mRNA (setting [2]) it was 1 to 10 µM; in the data set with MYB mRNA (setting [3]), below 0.1 µM; with MYB mRNA (setting [4]), below 0.1 µM; in the data set on SMN2 mRNA it was below 0.1 µM; in the data set on Target C, 1 to 10 µM. In the data set with K562 cells, the “Effect of Exemplary Compounds on Cell Viability, K562” value (from here on “Effect of Exemplary Compounds”) is “A (A represents <100 nM)”.

Take `Cc1c(O)c(-c2ncc3cc(N4CCC(N5CCC5)CC4)ccc3n2)cc2cn(C)nc12` [Compound 786, 5-{6-[4-(azetidin-1-yl)piperidin-1-yl]quinazolin-2-yl}-2,7-dimethylindazol-6-ol]: the AC50 in the data set on HTT mRNA (RT-qPCR) and in the data set on MYB mRNA (RT-qPCR) was 0.1 to 1 µM throughout. The 50% inhibitory concentration (IC50) in the data set on HTT mRNA (setting [1]) was 0.1 to 1 µM; in the data set on HTT mRNA (setting [2]) it was 0.1 to 1 µM; in the data set on MYB mRNA (setting [3]) it was 0.1 to 1 µM; in the data set with MYB mRNA (setting [4]), 0.1 to 1 µM; in the data set on SMN2 mRNA it was below 0.1 µM; with Target C, 0.1 to 1 µM. The “Effect of Exemplary Compounds” value with K562 cells was “B (B represents 100-1000 nM)”.

As to `Cn1cc2cc(-c3ncc4cc(N5CCC(N6CCC6)CC5)ccc4n3)cc(F)c2n1` [Compound 787, 6-[4-(azetidin-1-yl)piperidin-1-yl]-2-(7-fluoro-2-methylindazol-5-yl)quinazoline], the figures for the AC50 in the data set on HTT mRNA (RT-qPCR) and in the data set on MYB mRNA (RT-qPCR) were 1 to 10 µM and 0.1 to 1 µM, respectively. Further, the 50% inhibitory concentration (IC50) is 1 to 10 µM with HTT mRNA (setting [1]); 1 to 10 µM in the data set on HTT mRNA (setting [2]); 0.1 to 1 µM in the data set with MYB mRNA (setting [3]); 0.1 to 1 µM in the data set on MYB mRNA (setting [4]); below 0.1 µM in the data set with SMN2 mRNA; 1 to 10 µM with Target C. Also, in the data set on K562 cells, the “Effect of Exemplary Compounds” value was “B (B represents 100-1000 nM)”.

Consider `Cc1nc(-c2cc(F)c3nn(C)cc3c2)nc2ccc(N3CCC(N4CCC4)CC3)cc12` [Compound 788, 6-[4-(azetidin-1-yl)piperidin-1-yl]-2-(7-fluoro-2-methylindazol-5-yl)-4-methylquinazoline], for which the results for the AC50 in the data set on HTT mRNA (RT-qPCR) and with MYB mRNA (RT-qPCR) were 1 to 10 µM and 0.1 to 1 µM, respectively. The half-inhibitory concentration (IC50) in the data set on HTT mRNA (setting [1]) was 1 to 10 µM; in the data set on HTT mRNA (setting [2]), 1 to 10 µM; in the data set on MYB mRNA (setting [3]) it was 1 to 10 µM; in the data set with MYB mRNA (setting [4]) it was 1 to 10 µM; in the data set with SMN2 mRNA, below 0.1 µM; in the data set on Target C, 1 to 10 µM. The “Effect of Exemplary Compounds” value with K562 cells was “B (B represents 100-1000 nM)”.

As to `COc1cc(-c2ncc3cc(N4C[C@H](C)N[C@@H](C)C4)ccc3n2)cn2cc(C)nc12` [Compound 816], the AC50 in the data set with HTT mRNA (RT-qPCR) was 1 to 10 µM; with MYB mRNA (RT-qPCR), below 0.1 µM. Moreover, the IC50 is 1 to 10 µM in the data set on HTT mRNA (setting [1]); 1 to 10 µM with HTT mRNA (setting [2]); 0.1 to 1 µM in the data set with MYB mRNA (setting [3]); 0.1 to 1 µM with MYB mRNA (setting [4]); below 0.1 µM in the data set on SMN2 mRNA; above 10 µM with Target C. Further, in the data set on K562 cells, the “Effect of Exemplary Compounds” value is on record as “B (B represents 100-1000 nM)”.

Regarding `Cc1cn2cc(-c3ncc4cc(N5C[C@H](C)N[C@@H](C)C5)ccc4n3)cc(C#N)c2n1` [Compound 817], the half-maximal activity concentration (AC50) is 1 to 10 µM in the data set with HTT mRNA (RT-qPCR) and below 0.1 µM in the data set with MYB mRNA (RT-qPCR). In addition, the IC50 is 0.1 to 1 µM in the data set with HTT mRNA (setting [1]); 0.1 to 1 µM in the data set with HTT mRNA (setting [2]); below 0.1 µM with MYB mRNA (setting [3]); below 0.1 µM in the data set with MYB mRNA (setting [4]); below 0.1 µM with SMN2 mRNA; 1 to 10 µM with Target C. For the same molecule, the “Effect of Exemplary Compounds” value in the data set on K562 cells is reported as “B (B represents 100-1000 nM)”.

Regarding `Cc1nc2c(F)cc(-c3ncc4cc(N5C[C@H](C)N[C@@H](C)C5)ccc4n3)cn2n1` [Compound 819, 6-[(3S,5S)-3,5-dimethylpiperazin-1-yl]-2-{8-fluoro-2-methyl-[1,2,4]triazolo[1,5-a]pyridin-6-yl}quinazoline hydrochloride], the AC50 is 1 to 10 µM in the data set on HTT mRNA (RT-qPCR) and 0.1 to 1 µM with MYB mRNA (RT-qPCR). Moreover, the 50% inhibitory concentration (IC50) in the data set with HTT mRNA (setting [1]) was 1 to 10 µM; in the data set with HTT mRNA (setting [2]), 1 to 10 µM; in the data set on MYB mRNA (setting [3]) it was 0.1 to 1 µM; in the data set on MYB mRNA (setting [4]), 0.1 to 1 µM; with SMN2 mRNA, below 0.1 µM; with Target C, 1 to 10 µM. Besides, the “Effect of Exemplary Compounds” value in the data set with K562 cells was “B (B represents 100-1000 nM)”.

On to `CCc1cn2cc(-c3ncc4cc(N5C[C@H](C)N[C@@H](C)C5)ccc4n3)cc(F)c2n1` [Compound 821], for which the concentration at half-maximal activity (AC50) in the data set on HTT mRNA (RT-qPCR) and in the data set on MYB mRNA (RT-qPCR) was above 10 µM each time. Besides, the IC50 was above 10 µM in the data set with HTT mRNA (setting [1]); above 10 µM in the data set on HTT mRNA (setting [2]); 1 to 10 µM in the data set on MYB mRNA (setting [3]); 1 to 10 µM in the data set on MYB mRNA (setting [4]); 0.1 to 1 µM in the data set on SMN2 mRNA; above 10 µM in the data set with Target C. In the data set on K562 cells, the “Effect of Exemplary Compounds” value was “C (C represents 1000-9999 nM)”.

Consider `COc1nc(-c2ncc3cc(N4C[C@H](C)N[C@@H](C)C4)ccc3n2)cn2cc(C)nc12` [Compound 823], for which the AC50 in the data set on HTT mRNA (RT-qPCR) is 1 to 10 µM; in the data set on MYB mRNA (RT-qPCR) it was 0.1 to 1 µM. In addition, the IC50 in the data set with HTT mRNA (setting [1]) is 1 to 10 µM; in the data set on HTT mRNA (setting [2]) it was 1 to 10 µM; with MYB mRNA (setting [3]), 0.1 to 1 µM; in the data set with MYB mRNA (setting [4]), 0.1 to 1 µM; with SMN2 mRNA, below 0.1 µM; with Target C, above 10 µM. The “Effect of Exemplary Compounds” value with K562 cells is given as “B (B represents 100-1000 nM)”.

On to `Cc1cn2cc(-c3ncc4cc(N5C[C@H](C)N(C)[C@@H](C)C5)ccc4n3)cc(F)c2n1` [Compound 824], for which the AC50 in the data set on HTT mRNA (RT-qPCR) fell in the range of 1 to 10 µM; in the data set on MYB mRNA (RT-qPCR) it was 0.1 to 1 µM. The IC50 is 0.1 to 1 µM with HTT mRNA (setting [1]); 0.1 to 1 µM in the data set with HTT mRNA (setting [2]); 0.1 to 1 µM in the data set with MYB mRNA (setting [3]); 0.1 to 1 µM with MYB mRNA (setting [4]); below 0.1 µM with SMN2 mRNA; 1 to 10 µM with Target C. In addition, the “Effect of Exemplary Compounds” value in the data set with K562 cells is reported as “B (B represents 100-1000 nM)”.

On to `Cc1nc2c(F)cc(-c3ncc4cc(N5C[C@@H](C)N[C@@H](C)C5)ccc4n3)cn2n1` [Compound 825, 6-[(3R,5S)-3,5-dimethylpiperazin-1-yl]-2-{8-fluoro-2-methyl-[1,2,4]triazolo[1,5-a]pyridin-6-yl}quinazoline], for which the half-maximal activity concentration (AC50) in the data set on HTT mRNA (RT-qPCR) was 1 to 10 µM; in the data set with MYB mRNA (RT-qPCR), 0.1 to 1 µM. Moreover, the IC50 in the data set on HTT mRNA (setting [1]) is 1 to 10 µM; with HTT mRNA (setting [2]), 1 to 10 µM; in the data set with MYB mRNA (setting [3]) it was 0.1 to 1 µM; with MYB mRNA (setting [4]), 0.1 to 1 µM; with SMN2 mRNA it was below 0.1 µM; with Target C, 1 to 10 µM. In addition, the “Effect of Exemplary Compounds” value in the data set with K562 cells is listed as “C (C represents 1000-9999 nM)”.

On to `Cc1cn2cc(-c3ncc4cc(N5C[C@@H](C)N(C)[C@@H](C)C5)ccc4n3)cc(F)c2n1` [Compound 826, 2-{8-fluoro-2-methylimidazo[1,2-a]pyridin-6-yl}-6-[(3R,5S)-3,4,5-trimethylpiperazin-1-yl]quinazoline], for which the values for the AC50 with HTT mRNA (RT-qPCR) and with MYB mRNA (RT-qPCR) were 1 to 10 µM and below 0.1 µM, respectively. For the same molecule, the concentration for half-maximal inhibition (IC50) was 1 to 10 µM in the data set with HTT mRNA (setting [1]); 1 to 10 µM with HTT mRNA (setting [2]); 0.1 to 1 µM in the data set on MYB mRNA (setting [3]); 0.1 to 1 µM in the data set with MYB mRNA (setting [4]); below 0.1 µM in the data set on SMN2 mRNA; 1 to 10 µM in the data set with Target C. Besides, in the data set with K562 cells, the “Effect of Exemplary Compounds” value is listed as “B (B represents 100-1000 nM)”.
